# Assay results: patent US20090162351A1, “Transdiscal administration of inhibitors of p38 MAP kinase” (DePuy Spine, Inc., priority 2007, published 2009)
# Like-named read-outs stand apart in the source and are kept apart here.
# B1: rhGDF-5: growth and differentiation factor, member of the BMP family and TGF-beta superfamily (protein, UniProt P43026 382-501, looked up)
# Growth/differentiation factor …: APLATRQGKRPSKNLKARCSRKALHVNFKDMGWDDWIIAPLEYEAFHCEGLCEFPLRSHLEPTNHAVIQTLMNSMDPESTPPTCCVPTRLSPISILFIDSANNVVYKQYEDMVVESCGCR
# Assays:
# [1] = test system: bovine chondrocyte pellets / ARC tissues stimulated with IL-1β; assay: Chondrocyte pellet / ARC culture model: GAG degradation assay; type: cell-based; details: at 5 μM, 7.5 ng/ml IL-1, five days
# [2] = test system: bovine chondrocyte pellets / ARC tissues stimulated with IL-1β; assay: as above; type: cell-based; details: Bos taurus, Chondrocyte; at 5 μM; read-out: GAG Release (inhibition), Pellet Assay
# Excerpt: A chondrocyte pellet culture model was developed for in vitro high throughput screening of therapeutic compounds for inhibition of IL-1β-stimulated matrix degradation. The chondrocyte pellet culture model can be used to detect various potential therapeutic compounds effective in blocking different processes caused by IL-1β stimulation. For example, IL-1β stimulation results in increased glycosaminoglycan (GAG) degradation, prostaglandin E2 (PGE2) synthesis and total nitrite/nitrate production. Compounds with different mechanisms of action may inhibit the increase of one or two or all three of these parameters. For this reason, screening by, for example, measuring only GAG release would be limited to detection of a specific class of inhibitors and may not detect compounds with diversified mechanisms of function which may be involved in inhibition of the IL-1 stimulated inflammatory process. The development of the chondrocyte pellet culture assay system in a 96-well plate made possible large-scale screening of potential therapeutic compounds with different mechanisms of action.
# (§1) Calf articular cartilage was obtained from the knee joints of eight to twelve month old animals and was processed within twenty-four hours after sacrifice. After removal of muscle and ligament, the cartilage was kept moist using phosphate buffer solution (PBS) to prevent tissue dehydration, and was aseptically peeled off from subchondral bone with a scalpel, and the cartilage pieces were further minced into smaller pieces (˜0.3-0.5×˜0.2-0.5 cm cubes). […] Chondrocytes were then enzymatically isolated from the tissue by incubation for overnight at 37° C. with gentle agitation in 0.2% collagenase in Dulbecco's modified eagle media (DMEM). After removal of tissue debris by filtration through cell strainer and the residual collagenase by 3× wash in PBS, cells were finally resuspended at a density of 2.5×10^6 cells/ml in chondrocyte medium. A 1 ml aliquot of the cell suspension was dispensed into either a 15 ml Falcon centrifuge tube or a 96 deep-well plate and centrifuged at 2000×g for five minutes. The chondrocyte pellets were incubated at 37° C. in a humidified atmosphere of 5% CO2 for two to three weeks with a medium change every other day.
# (§2) As an alternative to using calf articular cartilage, a commercial Aliginate Recovered Chondrocytes (ARC) system was also used (Articular Engineering, LLC (Northbrook, Ill.)). Use of the commercial system cut down on labor and time in producing chondrocyte pellet. This system produced cartilaginous tissue in vitro using bovine chondrocytes. The first step consisted of culturing chondrocytes in alginate under conditions optimal for the formation of a cell-associated matrix (CM). The second step allowed these cells with their CM, after recovery, to rapidly form and become integrated into a solid mass of cartilage on a porous insert within two weeks.
# This tissue is rich in cells surrounded by a cell-associated matrix that is degraded rapidly when the cells are exposed to IL-1. ARC tissues in 3 mm punches at delivery were first dispensed into a 96 deep-well plate, one punch per well, for compound treatment. The subsequent procedures were the same as those used for the chondrocyte pellets.
# (§3) Chondrocyte pellets were washed once with 1 ml of Chondrocyte Stimulation Medium and equilibrated in the same medium at room temperature for fifteen to thirty minutes. Compounds were dissolved in H2O, Ethanol or dimethyl sulfoxide (DMSO) (10^−2 M) according to suppliers' instructions and further diluted with Chondrocyte Stimulation Medium to the required concentrations. DMSO concentrations in the culture media should not exceed 1%; this concentration of DMSO has no effect on cartilage proteoglycan metabolism in response to cytokines.
# The pellets were first treated with compounds at desired concentrations at 37° C. for one hour and then incubated for three to five days in the absence or presence of 10 ng/ml of IL-1β. […]
# [3] = target: CDK1 (Homo sapiens, UniProt P06493); assay: CDK1 inhibition; type: biochemical
# Sequence of CDK1 (P06493 whole entry, species assumed): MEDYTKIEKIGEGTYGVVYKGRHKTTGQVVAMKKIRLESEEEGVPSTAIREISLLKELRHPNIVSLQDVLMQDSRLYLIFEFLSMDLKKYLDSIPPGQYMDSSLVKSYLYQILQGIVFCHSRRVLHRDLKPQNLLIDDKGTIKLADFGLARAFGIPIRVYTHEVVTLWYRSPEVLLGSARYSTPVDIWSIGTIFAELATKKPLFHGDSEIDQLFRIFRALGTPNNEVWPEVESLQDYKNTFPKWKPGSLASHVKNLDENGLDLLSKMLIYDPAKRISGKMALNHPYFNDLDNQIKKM
# Sequence of CDK1 (P14635 whole entry partner, species assumed): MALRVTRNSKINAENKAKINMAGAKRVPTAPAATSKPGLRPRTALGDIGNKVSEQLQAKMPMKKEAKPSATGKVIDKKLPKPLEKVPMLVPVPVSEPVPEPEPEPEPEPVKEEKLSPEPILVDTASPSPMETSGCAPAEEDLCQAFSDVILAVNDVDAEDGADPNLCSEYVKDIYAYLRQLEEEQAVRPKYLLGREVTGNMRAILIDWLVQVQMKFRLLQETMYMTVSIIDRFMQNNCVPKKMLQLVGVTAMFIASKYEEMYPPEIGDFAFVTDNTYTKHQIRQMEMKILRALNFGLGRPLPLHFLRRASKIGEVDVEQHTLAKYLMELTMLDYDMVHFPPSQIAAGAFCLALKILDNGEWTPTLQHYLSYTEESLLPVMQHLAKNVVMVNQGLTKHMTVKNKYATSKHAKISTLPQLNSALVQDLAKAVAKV
# [4] = test system: IL-1β-stimulated PGE2 synthesis in bovine chondrocyte pellets / ARC tissues; assay: Chondrocyte pellet / ARC culture model: Prostaglandin E2 assay; type: cell-based
# Excerpt: as §1, §2, §3
# (§4) The pellets were first treated with compounds at desired concentrations at 37° C. for one hour and then incubated for three to five days in the absence or presence of 10 ng/ml of IL-1β. At the end of the incubation, media and pellets were harvested and frozen for further analysis. Pellets were also fixed as needed in 4% (w/v) paraformaldehyde in PBS for histology analysis.
# (§5) Prostaglandin E2 (PGE2) was measured with a STAT-Prostaglandin E2 EIA ELISA kit (Cayman Biochemicals). This assay is based on the competition between PGE2 from 50 μl samples and a PGE2-alkaline phosphatase conjugate for a limited amount of PGE2 monoclonal antibody in a reaction volume of 150 μl at room temperature for one hour. The antibody-PGE2 complex bound to a goat polyclonal anti-mouse IgG that had been previously attached to the well. After washing to remove any unbound reagents, para-nitrophenyl phosphate (pNPP) was added to the well. The product of this enzymatic reaction absorbs strongly at 412 nm. Because of the large range in response to IL-1β and other cytokines, PGE2 values were converted to log scale prior to doing t-tests.
# To characterize the relative efficacies among different p38 MAP kinase inhibitors, dose-response curves were generated for both PGE2 and NO assays. […] After one hour of treatment, ARCs were stimulated with or without 7.5 ng/ml IL-1β and continued to incubate for five days before assay. The IL-1β-stimulated PGE2 synthesis or NO production was first calculated by subtraction of PGE2/NO levels in the absence of IL-1β from that in the presence of IL-1β. […]
# [5] = test system: chondrocytes; type: cell-based
# Procedure: The LDH activity was determined calorimetrically in an enzymatic test based on the conversion of lactic acid to pyruvate in the presence of chromagenic substrate tetrazolium salt INT that was reduced to formazan.
# [6] = test system: human tumor xenograft models; assay: Human tumor xenograft models; type: in vivo; details: single agent
# [7] = Water solubility; type: physicochemical
# [8] = test system: IL-1β-stimulated NO production in bovine chondrocyte pellets / ARC tissues; assay: Chondrocyte pellet / ARC culture model: total nitrite and nitrate assay; type: cell-based; details: at 5 μM
# Excerpt: as §1, §2, §3, §4
# (§6) Nitrate/Nitrite levels were measured using the Griess reaction (Green L. C. et al., “Analysis of Nitrate, Nitrite, and [15N]nitrate in Biological Fluids,” Anal. Biochem. 126: 131-138 (1982)) with a Nitrate/Nitrite Colorimetric Assay Kit (Cayman Chemicals), the contents of which are incorporated herein by reference. The assay involved a simple two-step process. The first step involved conversion of nitrate in 50 μl of culture medium to nitrite utilizing nitrate reductase in a reaction volume of 100 μl at room temperature for two hours. The second step involved the addition of 50 μl of both Griess Reagent 1 and 2, which converted nitrite into a deep purple azo compound in ten minutes. Photometric measurement of the absorbance at 540 or 550 nm due to this azo chromophore accurately determined nitrite concentration. This assay kit cannot be used for RPMI (Roswell Park Memorial Institute) derived tissue culture medium due to interference with the colorimetric reaction.
# To characterize the relative efficacies among different p38 MAP kinase inhibitors, dose-response curves were generated for both PGE2 and NO assays. […] After one hour of treatment, ARCs were stimulated with or without 7.5 ng/ml IL-1β and continued to incubate for five days before assay. […]
# [9] = test system: human cancer cell lines; assay: Cell proliferation in culture; type: cell-based
# [10] = in vivo; cited from earlier work
# [11] = test system: cytokine-stimulated NO production in human ARC tissues; assay: Human ARC tissues: NO production; type: cell-based
# Procedure: as §6
# (§7) ® infliximab is a monoclonal antibody against human TNFα. To test whether […]® could modulate cytokine-stimulated responses in chondrocytes, human chondrocyte pellets were first tested for an optimal concentration for cytokine stimulation. Human ARC (i.e., ARCs generated using human chondrocytes) tissues were treated with various concentrations of either TNF or IL-1 for four and five days. The culture media was collected for measurement of GAG content as described above. Other assays were performed as described above. Cytokine dosage at 5 ng/ml and treatment for five days gave a reasonable treatment window, yet was not too challenging for compound efficacy (FIG. 4).
# (§8) Human ARC tissues were then treated with various concentrations of […]® in the presence or absence of either 10 ng/ml of TNFα or 5 ng/ml of IL-1β for four or five days.
# (§9) The efficacy of a monoclonal antibody (mAb) against human IL-6 in inhibition of proteoglycan degradation, NO production and PGE2 synthesis on human ARC tissues stimulated with IL-6 was also tested. […]
# [12] = test system: cytokine-stimulated PGE2 synthesis in human ARC tissues; assay: Human ARC tissues: PGE2 synthesis; type: cell-based; details: for PGE2 Inhibition, Pellet Assay: TNFα stimulated responses
# Procedure: as §5, §7, §8
# The efficacy of a monoclonal antibody (mAb) against human IL-6 in inhibition of proteoglycan degradation, NO production and PGE2 synthesis on human ARC tissues stimulated with IL-6 was also tested. Human ARC tissue were treated with 12.5, 25 and 250 ng/ml of IL-6 mAb diluted into chondrocyte stimulation medium. After one hour of treatment at 37° C., ARCs were stimulated with or without 25 ng/ml IL-6, 250 ng/ml IL-6 soluble receptor (IL-6SR) or IL-6 (25 ng/ml)+L-6SR (250 ng/ml) and incubated for five days before the culture media were harvested for assays.
# [13] = test system: human ARC tissues (human chondrocytes) stimulated with TNFα, IL-1β or IL-6 + IL-6SR; assay: Human ARC tissues: GAG release; type: cell-based
# Procedure: Glycosaminoglycan (GAG) levels in the culture media were determined by measuring the amount of polyanionic material reacting with 1,9-dimethylmethylene blue (DME) as detected by absorbance at 525 nm, using shark chondroitin sulfate as a standard. The DME blue dye-binding solution was prepared by dissolving 16 mg of DME blue in a solution containing 0.304% glycine, 0.23% sodium chloride (NaCl), 9.5 mM hydrochloric acid (HCl), pH=3.0 with absorbance at 525 equal to 0.31. Proteoglycans and proteoglycan metabolites in chondrocyte pellet were released by digesting the pellet with 125 μg/ml of papain in 0.1 M PBS, pH 6.0, 5 mM cysteine, 5 mM ethylene-diamine-tetra-acetic acid disodium salt (Na2EDTA) at 50° C. for overnight. Results are reported as either micrograms of GAG per milliliter or percent of total GAG released into culture medium.
# as §7, §8
# as §9, with “tested. Human ARC tissue were treated with 12.5, 25 and 250 ng/ml of IL-6 mAb diluted into chondrocyte stimulation medium.” for “tested.”
# [14] = test system: annulus fibrosus and nucleus pulposus cells from bovine caudal discs treated with IL-1β; assay: 3D in vitro disc cell model: GAG (DMMB); type: cell-based; details: 10 ng/ml IL-1β; inhibitor 1 μM, rhGDF-5 200 ng/ml
# Excerpt: (§10) Three-dimensional in vitro annulus fibrosis (AF) and nucleus pulposus (NP) models were established to investigate proteoglycan modulation and changes in gene expression in response to inflammatory cytokines such as interleukin-1 (e.g., IL-1β) and potential therapeutic agents such as growth and differentiation factor (GDF-5), and p38 MAP kinase inhibitors. AF and NP cells from bovine caudal discs were isolated by enzymatic digestion and seeded (2×10^6 cells/cm^2) onto Millipore CM filters coated with Collagen Type II and cultured in DMEM/20% heat-inactivated FBS, 100 ug/ml ascorbic acid and 5 ng/ml TGFβ1. […] Results were evaluated by histology (Tol. Blue staining was used to observe matrix production). Dimethylmethylene blue (DMMB) was used to detect sulphated glycosaminoglycans in a GAG/DNA assay. Taqman analysis was performed on aggrecans (AGG), collagen type 1 (col-1), collagen type 2 (col-2), and MMP 3, MMP 9 and MMP 13. In FIGS. 19A-C and 20A-C, annulus fibrosus and nucleus pulposus cells from bovine caudal discs were isolated by enzymatic digestion and seeded (2×10^6 cells/cm2) onto Millipore CM filters coated with Collagen Type II and cultured in DMEM/20% heat-inactivated FBS/100 ug/ml ascorbic acid and 5 ng/ml TGF-β1.
# [15] = test system: aggrecan and collagen type 2 mRNA in bovine AF and NP cells; assay: 3D in vitro disc cell model: Taqman gene expression; type: cell-based; details: 10 ng/ml IL-1β; inhibitor 1 μM, rhGDF-5 200 ng/ml
# Excerpt: as §10
# [16] = 10 ng/ml TNFα, four or five days
# [17] = at 1 ng/ml, TNFα stimulated responses
molecule,measurement,setting,value
"Nc1nc(Nc2ccc(S(N)(=O)=O)cc2)nn1C(=O)c1c(F)cccc1F [JNJ 7706621, 4-[5-Amino-1-(2,6-difluoro-benzoyl)-1H-[1,2,4]triazol-3-ylamino]-benzenesulfonamide]",GAG release (in words),[1],completely blocked
same,inhibition at 5 µM,[2],100%
same,IC50,[3],9 nM
same,"PGE2 Inhibition, Pellet Assay (in words)",[4]; Table 3B,No effect
same,PGE2 synthesis (in words),"[4]; at 5 μM, ARC tissues, 7.5 ng/ml IL-1, five days",little effect
same,"cytotoxicity to chondrocytes, LDH (in words)",[5],little toxicity
same,antitumor activity (in words),[6],single agent antitumor activity
same,solubility,[7]; at pH 7.4,17 µg/mL
same,solubility,"[7]; water, simulated gastric fluid, at pH 2, read-out: solubility",6 µg/mL
same,inhibition at 5 µM,"[8]; Bos taurus, Chondrocyte",100%
same,NO production (in words),"[8]; ARC tissues, 7.5 ng/ml IL-1, five days",completely blocked
same,cell cycle effects (in words),[9],"induced G2M arrest, endoreduplication and apoptosis"
same,IC50,"[9]; Homo sapiens, in 9 cell lines, read-out: inhibits cell proliferation in culture, IC50",337 ± 123 nM
REMICADE®: monoclonal antibody against human TNFα,half-life when administered systemically,[10],about 1 week
same,IL-1β stimulated responses: NO production (in words),[11]; 5 ng/ml IL-1β,little effect
same,TNFα-induced NO production (in words),[11]; [16],strongly inhibited
same,"NO Inhibition, Pellet Assay",[11]; [17],100% at
same,IL-1β stimulated responses: PGE2 synthesis (in words),[12]; 5 ng/ml IL-1β,little effect
same,TNFα-induced PGE2 synthesis (in words),[12]; [16],strongly inhibited
same,"PGE2 Inhibition, Pellet Assay",[12]; at 1 ng/ml,50% at 1 ng/ml
same,"PGE2 Inhibition, Pellet Assay",[12]; at 10 ng/ml,100% at
same,IL-1β stimulated responses: GAG release (in words),[13]; 5 ng/ml IL-1β,little effect
same,TNFα-induced GAG release (in words),[13]; [16],strongly inhibited
same,"GAG Release (inhibition), Pellet Assay",[13]; [17],100% at 1 ng/ml
B1,amount of GAG in the tissue (in words),[14],restored
same,gene expression of Agg and Col 2 (in words),[15],restored
